Laboratory results published in patent US5091398A, “Substituted 1,2,3,4-oxatriazolium-5-olates, a process for their preparation and their use” (Cassella Aktiengellschaft, priority 1989, dated 1992).
Where two headings read alike, the source gives them in different places.

Test system: pulmonary artery of the guinea pig
Experiment: relaxing effect on spiral strips of the pulmonary artery of the guinea pig (modified method of Godfraind and Kaba and of Schuman et al.)
Conditions: strips depolarised with 40 mmol/l potassium in calcium-free Tyrode solution, contraction by 0.5 mmol/l CaCl2, cumulative addition, mean value of 4 to 6 vessel strips, read-out: IC50 (concentration of the test substance which inhibits the contraction by 50%) (converted)
Protocol: The pharmacological effect of the compounds of the formula I was determined according to a modified method of Godfraind and Kaba (Arch. Int. Phamacodyn. Ther. 196, (Suppl) 35 to 49, 1972) and of Schuman et al. (Naunyn-Schmiedeberg's Arch. Phamacol. 289, 409 to 418, 1975). Spiral strips of the pulmonary artery of the guinea pig are depolarised with 40 mmol/1 of potassium after equilibration in calcium-free Tyrode solution. An addition of 0.5 mmol/1 of CaCl2 then induces a contraction. The relaxing effect of the test substance is determined by cumulative addition in 1/2 log 10 stepped concentrations. The concentration of the test substance which inhibits the contraction by 50% (=IC50, mol/1) is determined from the concentration-effect curve (abscissa: -log mol/1 of test substance, ordinate: percentage inhibition of the maximum contraction, mean value of 4 to 6 vessel strips).

Row | IC50 (Cavia porcellus) | IC50 | Structure (SMILES)
1 | 3000 nM |  | CCC(C)(C)[n+]1noc([O-])n1 [Example 1, 3-tert-Pentyl-1,2,3,4-oxatriazolium-5-olate]
2 | 60000 nM |  | CC(C)(C)NC(=O)C(C)(C)[n+]1noc([O-])n1 [Example 4, 3-(1-tert-Butylaminocarbonyl-1-methylethyl)-1,2,3,4-oxatriazolium-5-olate]
3 | 600 nM |  | CCCC(C)(C)[n+]1noc([O-])n1 [Example 5, 3-(2-Methylpent-2-yl)-1,2,3,4-oxatriazolium-5-olate]
4 |  | > 100000 nM | CCOC(=O)[N-]c1cn(N2CCOCC2)n[o+]1 [Molsidomine, N-ethoxycarbonyl-3-morpholinosydnoneimine, reference compound]
